Source: PubChem BioAssay (NCI)
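Growth conditions: 96-well plates. Treatment: test compound, 48 hours, 5 concentrations. Analysis: linear interpolation between bracketing concentrations; unreached endpoints set to highest concentration. At the GI50, growth is halved. TGI: total growth inhibition.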

Legend:
Assay in all cases: NCI tumour cell line growth inhibition, 48 h
ACHN renal = tested on: ACHN renal
CAKI-1 renal = tested on: CAKI-1 renal
DMS 114 small cell lung = tested on: DMS 114 small cell lung
DMS 273 small cell lung = tested on: DMS 273 small cell lung
KM20L2 colon = tested on: KM20L2 colon
OVCAR-4 ovarian = tested on: OVCAR-4 ovarian
SF-268 CNS = tested on: SF-268 CNS
SF-539 CNS = tested on: SF-539 CNS
SR leukemia = tested on: SR leukemia
XF 498 CNS = tested on: XF 498 CNS
HT29 colon = tested on: HT29 colon
MCF7 breast = tested on: MCF7 breast

Row | SMILES | TGI (ACHN renal) [µM] | TGI (CAKI-1 renal) [µM] | TGI (DMS 114 small cell lung) [µM] | TGI (DMS 273 small cell lung) [µM] | TGI (KM20L2 colon) [µM] | TGI (OVCAR-4 ovarian) [µM] | TGI (SF-268 CNS) [µM] | TGI (SF-539 CNS) [µM] | TGI (SR leukemia) [µM] | TGI (XF 498 CNS) [µM] | TGI (HT29 colon) [µM] | GI50 (HT29 colon) [µM] | TGI (MCF7 breast) [µM]
1 | CC1NC(=O)C2=C1C(N)=NC(=O)C2 (stereo not drawn) | > 100 | > 100 | > 100 | > 100 | > 100 | > 100 | > 100 | > 100 | > 100 | > 100 |  |  | 
2 | C=CCOC(=O)C1CCC(=O)N1C(=O)C(Cl)Cl (stereo not drawn) | > 100 | > 100 | > 100 | > 100 | > 100 | > 100 | > 100 |  |  | 33.2 | > 100 |  | 
3 | O=C(OC/C=C1C=C(OC(=O)c2ccccc2)/C(=N/N(C(=O)c2ccccc2)c2ccccc2)O\1)c1ccccc1 | 22.5 | 13.7 | 28.3 | 24.1 |  | 22.1 | 6.85 |  |  | 33.7 | 41.5 | 19.8 | 
4 | O=C(C/C(CCC(=O)N(Cc1ccccc1)Cc1ccccc1)=N/Nc1ccc([N+](=O)[O-])cc1[N+](=O)[O-])c1ccccc1 |  |  | > 100 | > 100 | > 100 | > 100 | > 100 | > 100 |  | > 100 | > 100 |  | 
5 | O=c1[nH]c(=O)n(C2OC(CO)C(O)C2O)cc1OCC(F)(F)F (stereo not drawn) | > 100 | > 100 | > 100 | > 100 | > 100 | > 100 | > 100 | > 100 | > 100 | > 100 | > 100 |  | 
6 | CCOC(=O)/C(=C/c1ccc(N(CCC#N)CCC#N)cc1C)NC(=O)/C=C/c1ccccc1 | > 100 | > 100 | > 100 | > 100 | > 100 |  | > 100 | > 100 |  | > 100 | > 100 |  | 
7 | COC1C2c3cc4c(cc3CC(C#N)(c3ccccc32)N1C(=O)c1ccccc1)OCO4 (stereo not drawn) | > 100 |  | > 100 | > 100 | > 100 |  | > 100 | > 100 | > 100 | > 100 | > 100 |  | 
8 | C/C=C/COC(=O)CO[N+](=O)[O-] | > 100 | > 100 | > 100 | > 100 | > 100 | > 100 | > 100 | > 100 | > 100 | > 100 | > 100 |  | 
9 | CCCCCCCCCCCCCC(=O)CSCCNC(=O)CCNC(=O)[C@@H](O)C(C)(C)COP(=O)(O)OP(=O)(O)OCC1OC(n2cnc3c(N)ncnc32)C(O)C1OP(=O)(O)O (stereo partly drawn) | 38 |  | 33.3 | 26.2 | 48 | 22.3 | 47.7 | 29.8 |  | 34.3 | 45.3 |  | 
10 | CN(/N=C/c1cccc2cccnc12)c1c([N+](=O)[O-])cc([N+](=O)[O-])cc1[N+](=O)[O-] | > 100 | > 100 | > 100 | > 100 | > 100 | > 100 | > 100 | > 100 |  | > 100 | > 100 |  | 
11 | Cn1c(=O)c2[nH]cnc2n(CC(N)=O)c1=O | > 100 | > 100 | > 100 | > 100 |  |  | > 100 | > 100 | > 100 | > 100 | > 100 |  | 
12 | COc1cccc2c1C(=O)OC2c1cccc2ccccc12 (stereo not drawn) | > 100 | > 100 | > 100 | > 100 | > 100 | > 88.7 | > 100 | > 100 | > 100 | > 100 | > 100 |  | > 100
13 | C#CC1(O)CCC2[C@@H]3CCc4cc(Oc5nc(F)nc(-c6c7ccccc7cn6C)n5)ccc4C3CC[C@@]21C (stereo partly drawn) | > 100 | > 100 | > 53.2 | > 100 | > 100 | > 100 | > 100 | > 100 | > 72.6 | > 100 | > 100 |  | 
14 | S=C=NCCc1ccccc1 | 3 |  | 1.97 | 1.1 | 6.68 | 6.33 | 3.65 | 0.532 | 86.9 | 5.35 | 0.554 |  | 
15 | Cc1ccc(C)c(NC(=O)CC2SC(=Nc3ccccc3Cl)NC2=O)c1 (stereo not drawn) | > 100 | > 100 | > 100 | > 100 | > 100 | > 100 | > 100 | > 100 | 55.4 | > 100 | > 100 |  | 
16 | Cc1nc2sccn2c1C(=O)NC(=O)Nc1ccc(Cl)cc1 | > 100 | > 100 | > 100 | > 100 | > 100 | > 100 | > 100 | > 100 |  | 69.2 | > 100 |  | 
17 | O=c1[nH]c(=O)n(C2CC(O)C(CO)O2)cc1C#Cc1ccc(F)cc1 (stereo not drawn) | > 100 | > 100 | > 100 | > 100 | > 100 | > 100 | > 100 | > 100 | > 100 | > 100 | > 100 |  | 
18 | CCn1c2c(c3ccccc31)C(c1ccccc1)CC1C(=O)N(c3ccccc3)C(=O)C21 (stereo not drawn) | > 100 | > 100 | > 100 | > 100 | > 100 | > 100 | > 100 | > 100 |  | 37.2 |  |  | 
